The assay deals with T1, purified human Factor XIa (Homo sapiens, UniProt P03951).
T1 construct: purchased Haematologic Technologies
The assay can be described thus: Factor XIa enzyme inhibition assay (chromogenic substrate S-2366), Ki. It is filed as biochemical. As to conditions: substrate S-2366, pH 7.4. Summed up: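 Purified human Factor XIa ([…] final) with chromogenic substrate S-2366 (0.0002-0.001 M) in 50 mM HEPES pH 7.4, 145 mM NaCl, 5 mM KCl, 0.1% PEG 8000. Velocities measured over 20-180 minutes with and without inhibitor; Ki derived assuming competitive inhibition, e.g. Ki=IC50/(1+S/Km).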

Molecules are shown by their SMILES.

T1 sequence (P03951 388-625 limits assumed): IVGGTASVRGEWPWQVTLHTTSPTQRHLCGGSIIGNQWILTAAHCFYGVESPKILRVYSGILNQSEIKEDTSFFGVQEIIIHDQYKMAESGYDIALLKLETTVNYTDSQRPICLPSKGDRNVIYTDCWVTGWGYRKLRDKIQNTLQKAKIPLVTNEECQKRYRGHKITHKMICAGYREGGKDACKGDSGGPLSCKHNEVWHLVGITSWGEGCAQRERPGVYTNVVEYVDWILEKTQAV
T1 sequence (P03951 19-387 partner limits assumed): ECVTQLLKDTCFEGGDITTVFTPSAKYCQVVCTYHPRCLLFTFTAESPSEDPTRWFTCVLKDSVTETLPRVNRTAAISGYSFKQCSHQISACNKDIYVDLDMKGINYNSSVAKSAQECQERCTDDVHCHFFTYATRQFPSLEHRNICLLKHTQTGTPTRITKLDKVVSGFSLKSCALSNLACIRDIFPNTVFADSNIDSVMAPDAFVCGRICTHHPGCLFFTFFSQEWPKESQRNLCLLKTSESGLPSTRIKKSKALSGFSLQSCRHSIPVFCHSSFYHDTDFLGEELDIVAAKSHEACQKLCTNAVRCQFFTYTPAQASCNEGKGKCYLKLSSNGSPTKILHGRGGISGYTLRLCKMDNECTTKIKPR

As a reminder, the Ki is a measure of affinity in units of concentration, obtained from inhibition or displacement. Lower therefore signals tighter binding. For `Cc1ccc2c(NC(=O)[C@H](Cc3ccccc3)n3cnc(-c4cc(Cl)ccc4-n4cc(Cl)nn4)cc3=O)noc2c1` [Example 113, (S)-2-(4-(5-chloro-2-(4-chloro-1H-1,2,3-triazol-1-yl)phenyl)-6-oxopyrimidin-1(6H)-yl)-N-(6-methylbenzo[d]isoxazol-3-yl)-3-phenylpropanamide], affinity was put at a Ki of 74 nM. With `O=C1OCC[C@@H]1NC(=O)[C@H](Cc1ccccc1)n1cnc(-c2cc(Cl)ccc2-n2cc(Cl)nn2)cc1=O` [Example 101, (S)-2-(4-(5-chloro-2-(4-chloro-1H-1,2,3-triazol-1-yl)phenyl)-6-oxopyrimidin-1(6H)-yl)-N-((S)-2-oxotetrahydrofuran-3-yl)-3-phenylpropanamide], affinity was put at a Ki of 7810 nM. In turn, `Cn1cc(NC(=O)[C@H](Cc2ccccc2)n2cnc(-c3cc(Cl)ccc3-n3cc(Cl)nn3)cc2=O)nn1` [Example 32, (S)-2-(4-(5-chloro-2-(4-chloro-1H-1,2,3-triazol-1-yl)phenyl)-6-oxopyrimidin-1(6H)-yl)-N-(1-methyl-1H-1,2,3-triazol-4-yl)-3-phenylpropanamide] returned an inhibitory constant (Ki) of 341 nM. `Nc1n[nH]c2ccc(NC(=O)[C@H](Cc3ccccc3)n3cnc(-c4cc(Cl)ccc4-n4cc(Cl)nn4)cc3=O)cc12` [Example 98, (S)-N-(3-amino-1H-indazol-5-yl)-2-(4-(5-chloro-2-(4-chloro-1H-1,2,3-triazol-1-yl)phenyl)-6-oxopyrimidin-1(6H)-yl)-3-phenylpropanamide] yielded an inhibition constant Ki of 554 nM. Compound `O=C(Nc1cnns1)[C@H](Cc1ccccc1)n1cnc(-c2cc(Cl)ccc2-n2cc(Cl)nn2)cc1=O` [Example 36, (S)-2-(4-(5-chloro-2-(4-chloro-1H-1,2,3-triazol-1-yl)phenyl)-6-oxopyrimidin-1(6H)-yl)-3-phenyl-N-(1,2,3-thiadiazol-5-yl)propanamide] had a Ki of 1340 nM.

`N=C(N)c1ccc(NC(=O)[C@H](Cc2ccccc2)n2cnc(-c3cc(Cl)ccc3-n3cc(Cl)nn3)cc2=O)cc1` [Example 112, (S)-N-(4-carbamimidoylphenyl)-2-(4-(5-chloro-2-(4-chloro-1H-1,2,3-triazol-1-yl)phenyl)-6-oxopyrimidin-1(6H)-yl)-3-phenylpropanamide] displayed an inhibition constant Ki of 277 nM. `O=C([C@H](Cc1ccccc1)n1cnc(-c2cc(Cl)ccc2-n2cc(Cl)nn2)cc1=O)N1CCC(O)CC1` [Example 81, (S)-6-(5-chloro-2-(4-chloro-1H-1,2,3-triazol-1-yl)phenyl)-3-(1-(4-hydroxypiperidin-1-yl)-1-oxo-3-phenylpropan-2-yl)pyrimidin-4(3H)-one] showed a Ki of 4410 nM.

On to `CC(C)c1nnc2n1CCN(C(=O)[C@H](Cc1ccccc1)n1cnc(-c3cc(Cl)ccc3-n3cc(Cl)nn3)cc1=O)C2` [Example 67, (S)-6-(5-chloro-2-(4-chloro-1H-1,2,3-triazol-1-yl)phenyl)-3-(1-(3-isopropyl-5,6-dihydro-[1,2,4]triazolo[4,3-a]pyrazin-7(8H)-yl)-1-oxo-3-phenylpropan-2-yl)pyrimidin-4(3H)-one], for which the affinity corresponds to a Ki of 7370 nM.

As to `O=C(NCCc1ncn[nH]1)[C@H](Cc1ccccc1)n1cnc(-c2cc(Cl)ccc2-n2cc(Cl)nn2)cc1=O` [Example 82, (S)-N-(2-(1H-1,2,4-triazol-5-yl)ethyl)-2-(4-(5-chloro-2-(4-chloro-1H-1,2,3-triazol-1-yl)phenyl)-6-oxopyrimidin-1(6H)-yl)-3-phenylpropanamide], the Ki came out at 7370 nM.

The compound `O=C1NCc2ccc(NC(=O)[C@H](Cc3ccccc3)n3cnc(-c4cc(Cl)ccc4-n4cc(Cl)nn4)cc3=O)cc21` [Example 117, (S)-2-(4-(5-chloro-2-(4-chloro-1H-1,2,3-triazol-1-yl)phenyl)-6-oxopyrimidin-1(6H)-yl)-N-(3-oxoisoindolin-5-yl)-3-phenylpropanamide] registered an inhibitory constant (Ki) of 102 nM. `O=C(Nc1ccc2ncncc2c1)[C@H](Cc1ccccc1)n1cnc(-c2cc(Cl)ccc2-n2cc(Cl)nn2)cc1=O` [Example 31, (S)-2-(4-(5-chloro-2-(4-chloro-1H-1,2.3-triazol-1-yl)phenyl)-6-oxopyrimidin-1(6H)-yl)-3-phenyl-N-(quinazolin-6-yl)propanamide] displayed a Ki of 10.3 nM. `O=C1CN(C(=O)[C@H](Cc2ccccc2)n2cnc(-c3cc(Cl)ccc3-n3cc(Cl)nn3)cc2=O)CCN1` [Example 53, (S)-6-(5-chloro-2-(4-chloro-1H-1,2,3-triazol-1-yl)phenyl)-3-(1-oxo-1-(3-oxopiperazin-1-yl)-3-phenylpropan-2-yl)pyrimidin-4(3H)-one] registered a Ki of 7620 nM. The compound `O=C([C@H](Cc1ccccc1)n1cnc(-c2cc(Cl)ccc2-n2cc(Cl)nn2)cc1=O)N1CCN(c2ccncc2)CC1` [Example 57, (S)-6-(5-chloro-2-(4-chloro-1H-1,2,3-triazol-1-yl)phenyl)-3-(1-oxo-3-phenyl-1-(4-(pyridin-4-yl)piperazin-1-yl)propan-2-yl)pyrimidin-4(3H)-one] showed an inhibition constant Ki of 4890 nM. In turn, `O=C(O)c1ccc(NC(=O)[C@H](Cc2ccccc2)N2CCC(c3c(-n4ccnn4)ccc(Cl)c3F)=CC2=O)cc1` [Example 137, 4-[(2S)-2-{4-[3-chloro-2-fluoro-6-(1H-1,2,3-triazol-1-yl)phenyl]-6-oxo-1,2,3,6-tetrahydropyridin-1-yl}-3-phenylpropanamido]benzoic Acid] gave an inhibitory constant (Ki) of 3.24 nM.

`N#Cc1ccc(NC(=O)[C@H](Cc2ccccc2)n2cnc(-c3cc(Cl)ccc3-n3cc(Cl)nn3)cc2=O)cn1` [Example 43, (S)-2-(4-(5-chloro-2-(4-chloro-1H-1,2,3-triazol-1-yl)phenyl)-6-oxopyrimidin-1(6H)-yl)-N-(6-cyanopyridin-3-yl)-3-phenylpropanamide] displayed an inhibitory constant (Ki) of 208 nM. With `O=C(NCc1n[nH]c2c1CCCC2)[C@H](Cc1ccccc1)n1cnc(-c2cc(Cl)ccc2-n2cc(Cl)nn2)cc1=O` [Example 91, (S)-2-(4-(5-chloro-2-(4-chloro-1H-1,2,3-triazol-1-yl)phenyl)-6-oxopyrimidin-1(6H)-yl)-3-phenyl-N-((4,5,6,7-tetrahydro-1H-indazol-3-yl)methyl)propanamide] the figure was 2850 nM; with `COC(=O)c1ccc(NC(=O)[C@H](Cc2ccccc2)n2cnc(-c3cc(Cl)ccc3-n3cc(Cl)nn3)cc2=O)cc1` [Example 22, methyl (S)-4-(2-(4-(5-chloro-2-(4-chloro-1H-1,2,3-triazol-1-yl)phenyl)-6-oxopyrimidin-1(6H)-yl)-3-phenylpropanamido)benzoate], 83.7 nM. For `O=C(NCc1ccncc1)[C@H](Cc1ccccc1)n1cnc(-c2cc(Cl)ccc2-n2cc(Cl)nn2)cc1=O` [Example 74, (S)-2-(4-(5-chloro-2-(4-chloro-1H-1,2,3-triazol-1-yl)phenyl)-6-oxopyrimidin-1(6H)-yl)-3-phenyl-N-(pyridin-4-ylmethyl)propanamide], affinity was put at a Ki of 552 nM. `O=C(NCc1nccs1)[C@H](Cc1ccccc1)n1cnc(-c2cc(Cl)ccc2-n2cc(Cl)nn2)cc1=O` [Example 50, (S)-2-(4-(5-chloro-2-(4-chloro-1H-1,2,3-triazol-1-yl)phenyl)-6-oxopyrimidin-1(6H)-yl)-3-phenyl-N-(thiazol-2-ylmethyl)propanamide] returned an inhibition constant Ki of 6590 nM. Take `O=C(Nc1cnn(-c2ccccc2)c1)[C@H](Cc1ccccc1)n1cnc(-c2cc(Cl)ccc2-n2cc(Cl)nn2)cc1=O` [Example 120, (S)-2-(4-(5-chloro-2-(4-chloro-1H-1,2,3-triazol-1-yl)phenyl)-6-oxopyrimidin-1(6H)-yl)-3-phenyl-N-(1-phenyl-1H-pyrazol-4-yl)propanamide]: the inhibitory constant (Ki) amounted to 549 nM. In turn, `CN(C)Cc1nccn1-c1ccc(NC(=O)[C@H](Cc2ccccc2)n2cnc(-c3cc(Cl)ccc3-n3cc(Cl)nn3)cc2=O)c(F)c1` [Example 95, (S)-2-(4-(5-chloro-2-(4-chloro-1H-1,2,3-triazol-1-yl)phenyl)-6-oxopyrimidin-1(6H)-yl)-N-(4-(2-((dimethylamino)methyl)-1H-imidazol-1-yl)-2-fluorophenyl)-3-phenylpropanamide] registered an inhibition constant Ki of 783 nM. `CCOC(=O)c1cn2c(n1)CN(C(=O)[C@H](Cc1ccccc1)n1cnc(-c3cc(Cl)ccc3-n3cc(Cl)nn3)cc1=O)CC2` [Example 65, ethyl (S)-7-(2-(4-(5-chloro-2-(4-chloro-1H-1,2,3-triazol-1-yl)phenyl)-6-oxopyrimidin-1(6H)-yl)-3-phenylpropanoyl)-5,6,7,8-tetrahydroimidazo[1,2-a]pyrazine-2-carboxylate] gave a Ki of 4940 nM.

In turn, `O=C(NC1COc2ccccc21)[C@H](Cc1ccccc1)n1cnc(-c2cc(Cl)ccc2-n2cc(Cl)nn2)cc1=O` (stereo partly drawn) [Example 128, (2S)-2-(4-(5-chloro-2-(4-chloro-1H-1,2,3-triazol-1-yl)phenyl)-6-oxopyrimidin-1(6H)-yl)-N-(2,3-dihydrobenzofuran-3-yl)-3-phenylpropanamide] registered an inhibition constant Ki of 826 nM.

`NS(=O)(=O)C1CCN(C(=O)[C@H](Cc2ccccc2)n2cnc(-c3cc(Cl)ccc3-n3cc(Cl)nn3)cc2=O)CC1` [Example 84, (S)-1-(2-(4-(5-chloro-2-(4-chloro-1H-1,2,3-triazol-1-yl)phenyl)-6-oxopyrimidin-1(6H)-yl)-3-phenylpropanoyl)piperidine-4-sulfonamide] had an inhibitory constant (Ki) of 2520 nM. For the compound `CC1=NN=C(NC(=O)[C@H](Cc2ccccc2)n2cnc(-c3cc(Cl)ccc3-n3cc(Cl)nn3)cc2=O)SC1` [Example 107, (S)-2-(4-(5-chloro-2-(4-chloro-1H-1,2,3-triazol-1-yl)phenyl)-6-oxopyrimidin-1(6H)-yl)-N-(5-methyl-6H-1,3,4-thiadiazin-2-yl)-3-phenylpropanamide], the affinity, expressed as Ki, was 4550 nM. Consider `O=C(Nc1n[nH]c2cccnc12)[C@H](Cc1ccccc1)n1cnc(-c2cc(Cl)ccc2-n2cc(Cl)nn2)cc1=O` [Example 122, (S)-2-(4-(5-chloro-2-(4-chloro-1H-1,2,3-triazol-1-yl)phenyl)-6-oxopyrimidin-1(6H)-yl)-3-phenyl-N-(1H-pyrazolo[4,3-b]pyridin-3-yl)propanamide], for which the affinity corresponds to a Ki of 632 nM.

(Values after patent US10336730B2, “Substituted glycine derived FXIA inhibitors” (BRISTOL-MYERS SQUIBB COMPANY, priority 2015, dated 2019).)
